Measurements reported in patent publication US20180265515A1 (Genentech, Inc., priority 2015, published 2018).

How the values were obtained:
[1] = target: LRRK2 (Homo sapiens, UniProt Q5S007); experiment: LRRK2 assay (Life Technologies Adapta, SelectScreen Profiling, IC50); type: biochemical; settings: for IC50: 75 μM ATP, 10-point curves, read-out: LRRK 2 IC50; for Ratio (LRRK 2 IC50: JAK1 Ki): selectivity ratio LRRK2 IC50 over JAK1 Ki; for selectivity for JAK1 over LRRK2 (in words): 5-sulfanylphenyl compound compared with 5-chlorophenyl matched pair
[2] = target: T1, isolated recombinant JAK1 kinase domain (Homo sapiens, UniProt P23458); experiment: JAK1 enzyme assay (Caliper LabChip, Ki); type: biochemical; settings: 25 μM ATP
T1 construct: The activity of the isolated recombinant JAK1 and JAK2 kinase domain was measured
Summary of the method: (§1)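 Ki values fitted with Morrison tight-binding equation adjusted for ATP-competitive inhibition, using product-to-total peptide ratio read by Caliper LabChip. Reactions: isolated JAK1 or JAK2 kinase domain with N-terminal 5-carboxyfluorescein JAK3-derived peptide, 22° C for 30 min, quenched by EDTA.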

[3] = test system: JAK1-dependent STAT6 phosphorylation downstream of IL-13 stimulation in BEAS-2B human bronchial epithelial cells; experiment: JAK1 pathway assay in BEAS-2B cells (IL-13 stimulated STAT6 phosphorylation, MSD); type: cell-based; settings: read-out: P-STAT6 BEAS2B + IL13 IC50
Summary of the method: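 BEAS-2B human bronchial epithelial cells, plated the day before in complete growth medium, were preincubated with compound for 1 hr at 37° C (0.2% DMSO final), then stimulated with IL-13 at its EC90 for 15 min. STAT6 phosphorylation in lysates was read by MSD; EC50 was taken as 50% inhibition versus DMSO control.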

[4] = target: T2, isolated recombinant JAK2 kinase domain (Homo sapiens, UniProt O60674); experiment: JAK2 enzyme assay (Caliper LabChip, Ki); type: biochemical; settings: 25 μM ATP
T2 construct: The activity of the isolated recombinant JAK1 and JAK2 kinase domain was measured
Summary of the method: as §1

T2 sequence (O60674 849-1124 limits assumed): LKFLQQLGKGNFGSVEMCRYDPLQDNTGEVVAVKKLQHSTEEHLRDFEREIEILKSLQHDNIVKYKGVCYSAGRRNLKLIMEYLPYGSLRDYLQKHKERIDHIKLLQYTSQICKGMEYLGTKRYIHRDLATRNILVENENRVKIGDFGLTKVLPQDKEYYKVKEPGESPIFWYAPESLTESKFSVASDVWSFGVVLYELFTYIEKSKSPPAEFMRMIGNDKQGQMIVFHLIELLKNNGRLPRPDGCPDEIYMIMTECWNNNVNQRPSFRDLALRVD
LRRK2, sequence (Q5S007 970-2527 limits assumed): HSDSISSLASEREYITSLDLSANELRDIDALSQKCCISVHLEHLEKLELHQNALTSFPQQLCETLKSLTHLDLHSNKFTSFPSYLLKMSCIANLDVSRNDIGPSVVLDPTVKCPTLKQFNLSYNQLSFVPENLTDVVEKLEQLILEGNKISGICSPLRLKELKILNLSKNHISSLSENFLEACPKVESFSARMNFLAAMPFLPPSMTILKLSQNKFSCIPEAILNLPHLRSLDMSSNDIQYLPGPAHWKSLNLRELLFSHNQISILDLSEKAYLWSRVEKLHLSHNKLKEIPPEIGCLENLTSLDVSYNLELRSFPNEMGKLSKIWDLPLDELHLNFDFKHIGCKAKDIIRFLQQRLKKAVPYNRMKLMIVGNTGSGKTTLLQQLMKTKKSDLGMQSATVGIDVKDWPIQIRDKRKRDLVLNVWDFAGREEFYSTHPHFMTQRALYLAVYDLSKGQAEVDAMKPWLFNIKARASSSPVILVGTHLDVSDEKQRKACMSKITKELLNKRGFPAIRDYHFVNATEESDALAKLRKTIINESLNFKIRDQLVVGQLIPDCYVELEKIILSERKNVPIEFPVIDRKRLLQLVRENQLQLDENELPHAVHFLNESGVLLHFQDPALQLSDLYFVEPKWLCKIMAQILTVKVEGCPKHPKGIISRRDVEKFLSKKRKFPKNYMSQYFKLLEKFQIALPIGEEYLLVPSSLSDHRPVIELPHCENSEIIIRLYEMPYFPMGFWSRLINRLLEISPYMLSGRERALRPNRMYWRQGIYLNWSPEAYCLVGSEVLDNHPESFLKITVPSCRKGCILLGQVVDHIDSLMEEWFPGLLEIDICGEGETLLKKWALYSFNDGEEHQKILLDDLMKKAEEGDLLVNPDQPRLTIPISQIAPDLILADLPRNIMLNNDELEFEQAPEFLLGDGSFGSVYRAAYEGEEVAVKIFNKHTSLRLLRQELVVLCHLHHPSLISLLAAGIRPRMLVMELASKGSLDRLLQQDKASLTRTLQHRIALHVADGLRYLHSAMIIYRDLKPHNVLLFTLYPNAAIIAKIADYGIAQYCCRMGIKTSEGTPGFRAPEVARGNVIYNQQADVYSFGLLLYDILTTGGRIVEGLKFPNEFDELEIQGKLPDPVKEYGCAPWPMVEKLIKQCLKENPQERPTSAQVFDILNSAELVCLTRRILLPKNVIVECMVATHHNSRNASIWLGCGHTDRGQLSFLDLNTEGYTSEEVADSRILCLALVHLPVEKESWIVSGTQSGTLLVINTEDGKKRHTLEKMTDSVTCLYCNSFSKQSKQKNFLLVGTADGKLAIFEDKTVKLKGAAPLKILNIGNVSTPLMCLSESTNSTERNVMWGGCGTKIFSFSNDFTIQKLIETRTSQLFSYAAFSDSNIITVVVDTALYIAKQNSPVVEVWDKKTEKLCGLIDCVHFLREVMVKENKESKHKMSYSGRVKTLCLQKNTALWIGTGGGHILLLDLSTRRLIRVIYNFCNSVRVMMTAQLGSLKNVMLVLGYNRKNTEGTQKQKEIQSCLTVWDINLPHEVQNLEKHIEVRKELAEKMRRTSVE
T1 sequence (P23458 875-1153 limits assumed): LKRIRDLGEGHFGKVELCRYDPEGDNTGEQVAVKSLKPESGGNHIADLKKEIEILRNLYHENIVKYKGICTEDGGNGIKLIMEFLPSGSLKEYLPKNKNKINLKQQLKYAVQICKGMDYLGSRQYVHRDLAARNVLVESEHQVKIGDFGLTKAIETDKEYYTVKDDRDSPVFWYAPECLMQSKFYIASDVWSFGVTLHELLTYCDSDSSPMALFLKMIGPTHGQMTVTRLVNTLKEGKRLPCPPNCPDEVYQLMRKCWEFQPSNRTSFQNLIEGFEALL

| SMILES | IC50 [1] [nM] | Ratio (LRRK 2 IC50: JAK1 Ki) [1] | Ki ([2]; Morrison tight binding model) [nM] | selectivity for JAK1 over LRRK2 (in words) [1] | IC50 [3] [nM] | Ki ([2]; recombinant JAK1 kinase domain) [nM] | Ki [4] [nM] |
| --- | --- | --- | --- | --- | --- | --- | --- |
| Cn1cc(NC(=O)c2cnn3cccnc23)c(-c2cc(Cl)ccc2OC(F)F)n1 [A, reference compound] | 80.9 | 449 | 0.18 | – | – | – | – |
| CSc1ccc(OC(F)F)c(-c2nn(CC(=O)N3CCC(CN4CCN(CC(=O)N(C)C)CC4)CC3)cc2NC(=O)c2cnn3cccnc23)c1 [L] | 2000 | 6453 | 0.31 | high degree of JAK1 over LRRK2 selectivity | – | – | – |
| CSc1ccc(OC(F)F)c(-c2nn(CC(=O)N3CCC(N4CCC[C@@H](C#N)C4)CC3)cc2NC(=O)c2cnn3cccnc23)c1 [K] | 1700 | 8500 | 0.2 | high degree of JAK1 over LRRK2 selectivity | – | – | – |
| CSc1ccc(OC(F)F)c(-c2nn(C)cc2NC(=O)c2cnn3cccnc23)c1 [D] | 193 | 1485 | 0.13 | greater selectivity for JAK1 over LRRK2 than their 5-chlorophenyl matched pair A | – | – | – |
| Cn1cc(NC(=O)c2cnn3cccnc23)c(-c2cc(SC3COC3)ccc2OC(F)F)n1 [F] | – | – | 0.29 | greater selectivity for JAK1 over LRRK2 than their 5-chlorophenyl matched pair A | – | – | – |
| CSc1ccc(OC(F)F)c(-c2nn(CC(=O)N3CCC(NCC(C)(C)C#N)CC3)cc2NC(=O)c2cnn3cccnc23)c1 [M] | 3350 | 16750 | 0.2 | high degree of JAK1 over LRRK2 selectivity | – | – | – |
| Cn1cc(NC(=O)c2cnn3cccnc23)c(-c2cc(SC(CF)CF)ccc2OC(F)F)n1 [G] | – | – | 0.16 | greater selectivity for JAK1 over LRRK2 than their 5-chlorophenyl matched pair A | – | – | – |
| CC(C)Sc1ccc(OC(F)F)c(-c2nn(C)cc2NC(=O)c2cnn3cccnc23)c1 [E] | 2220 | 8880 | 0.25 | greater selectivity for JAK1 over LRRK2 than their 5-chlorophenyl matched pair A | – | – | – |
| CSc1ccc(OC(F)F)c(-c2nn(C3CCOCC3)cc2NC(=O)c2cnn3cccnc23)c1 [I] | – | – | 0.67 | greater selectivity for JAK1 over LRRK2 than its 5-chlorophenyl matched pair C | – | – | – |
| CC(C)(O)Cn1cc(NC(=O)c2cnn3cccnc23)c(-c2cc(Cl)ccc2OC(F)F)n1 [B, reference compound] | 431 | 1078 | 0.4 | – | – | – | – |
| CSc1ccc(OC(F)F)c(-c2nn(CC(=O)N3CCC(N4CCOCC4)CC3)cc2NC(=O)c2cnn3cccnc23)c1 [N] | 1850 | 6379 | 0.29 | high degree of JAK1 over LRRK2 selectivity | – | – | – |
| CSc1ccc(OC(F)F)c(-c2nn(CC(C)(C)O)cc2NC(=O)c2cnn3cccnc23)c1 [H] | – | – | – | greater selectivity for JAK1 over LRRK2 than its 5-chlorophenyl matched pair B | – | – | – |
| CSc1ccc(OC(F)F)c(-c2nn(CCN[C@H]3CCOC3)cc2NC(=O)c2cnn3cccnc23)c1 [Example 10, N-[3-[2-(difluoromethoxy)-5-methylsulfanyl-phenyl]-1-[2-[[(3S)-tetrahydrofuran-3-yl]amino]ethyl]pyrazol-4-yl]pyrazolo[1,5-a]pyrimidine-3-carboxamide] | – | – | – | – | 8.8 | 0.49 | 0.27 |
| CSc1ccc(OC(F)F)c(-c2nn(CC(=O)N3CCN(CC4CCN(CC(=O)N5CCOCC5)CC4)CC3)cc2NC(=O)c2cnn3cccnc23)c1 [Example 93, N-[3-[2-(difluoromethoxy)-5-methylsulfanyl-phenyl]-1-[2-[4-[[1-(2-morpholino-2-oxo-ethyl)-4-piperidyl]methyl]piperazin-1-yl]-2-oxo-ethyl]pyrazol-4-yl]pyrazolo[1,5-a]pyrimidine-3-carboxamide] | – | – | – | – | 26 | 0.44 | 0.71 |
| O=C(Nc1cn(CCN[C@@H]2CCCOC2)nc1-c1cc(SC2COC2)ccc1OC(F)F)c1cnn2cccnc12 [Example 180, N-[3-[2-(difluoromethoxy)-5-(oxetan-3-ylsulfanyl)phenyl]-1-[2-[[(3R)-tetrahydropyran-3-yl]amino]ethyl]pyrazol-4-yl]pyrazolo[1,5-a]pyrimidine-3-carboxamide] | – | – | – | – | 14 | 1 | 0.76 |
| CC(C)Sc1ccc(OC(F)F)c(-c2nn(CC(=O)N3CCC(N4CCN(CC(=O)N5CCOCC5)CC4)CC3)cc2NC(=O)c2cnn3cccnc23)c1 [Example 152, N-[3-[2-(difluoromethoxy)-5-isopropylsulfanyl-phenyl]-1-[2-[4-[4-(2-morpholino-2-oxo-ethyl)piperazin-1-yl]-1-piperidyl]-2-oxo-ethyl]pyrazol-4-yl]pyrazolo[1,5-a]pyrimidine-3-carboxamide] | – | – | – | – | 290 | 0.52 | 1.3 |
| CC(C)(C#N)CNC1CCN(C(=O)Cn2cc(NC(=O)c3cnn4cccnc34)c(-c3cc(SC4CC4)ccc3OC(F)F)n2)CC1 [Example 167, N-[1-(2-[4-[(2-cyano-2,2-dimethylethyl)amino]piperidin-1-yl]-2-oxoethyl)-3-[5-(cyclopropylsulfanyl)-2-(difluoromethoxy)phenyl]-1H-pyrazol-4-yl]pyrazolo[1,5-a]pyrimidine-3-carboxamide] | – | – | – | – | 11 | 0.28 | 0.67 |
| CSc1ccc(OC(F)F)c(-c2nn(CC(=O)N3CCC(CN4CCN(CC(=O)N(C)C)C[C@@H]4C)CC3)cc2NC(=O)c2cnn3cccnc23)c1 [Example 94, N-[3-[2-(difluoromethoxy)-5-methylsulfanyl-phenyl]-1-[2-[4-[[(2S)-4-[2-(dimethylamino)-2-oxo-ethyl]-2-methyl-piperazin-1-yl]methyl]-1-piperidyl]-2-oxo-ethyl]pyrazol-4-yl]pyrazolo[1,5-a]pyrimidine-3-carboxamide] | – | – | – | – | 62 | 0.46 | 0.63 |
| CC(C)Sc1ccc(OC(F)F)c(-c2nn(CC(=O)N3CCC(N4CCNC(=O)C4)CC3)cc2NC(=O)c2cnn3cccnc23)c1 [Example 108, N-[3-[2-(difluoromethoxy)-5-isopropylsulfanyl-phenyl]-1-[2-oxo-2-[4-(3-oxopiperazin-1-yl)-1-piperidyl]ethyl]pyrazol-4-yl]pyrazolo[1,5-a]pyrimidine-3-carboxamide] | – | – | – | – | 850 | 0.37 | 0.94 |
| O=C(Nc1cn(C2CCOCC2)nc1-c1cc(Cl)ccc1OC(F)F)c1cnn2cccnc12 [C, reference compound] | 1030 | 1493 | 0.69 | – | – | – | – |
| CC(C)Sc1ccc(OC(F)F)c(-c2nn(CC(=O)N3CCN(CCOCCO)CC3)cc2NC(=O)c2cnn3cccnc23)c1 [Example 122, N-[3-[2-(difluoromethoxy)-5-isopropylsulfanyl-phenyl]-1-[2-[4-[2-(2-hydroxyethoxy)ethyl]piperazin-1-yl]-2-oxo-ethyl]pyrazol-4-yl]pyrazolo[1,5-a]pyrimidine-3-carboxamide] | – | – | – | – | 42 | 0.41 | 0.85 |
| COC(=O)N1CCN(CC2CCN(C(=O)Cn3cc(NC(=O)c4cnn5cccnc45)c(-c4cc(SC)ccc4OC(F)F)n3)CC2)CC1 [J] | 2450 | 8167 | 0.3 | high degree of JAK1 over LRRK2 selectivity | – | – | – |
| CC(C)Sc1ccc(OC(F)F)c(-c2nn(CC(=O)N3CCC(N(C)C4COC4)CC3)cc2NC(=O)c2cnn3cccnc23)c1 [Example 110, N-[3-[2-(difluoromethoxy)-5-isopropylsulfanyl-phenyl]-1-[2-[4-[methyl(oxetan-3-yl)amino]-1-piperidyl]-2-oxo-ethyl]pyrazol-4-yl]pyrazolo[1,5-a]pyrimidine-3-carboxamide] | – | – | – | – | 27 | 0.41 | 1 |
